# In US12409160B1, “Compositions and methods for treatment of peri-implantitis and periodontitis” (Cusp Biosciences, Inc., priority 2025, dated 2025):
# What was measured:
# [1] = cited from earlier work
# [2] = test system: human periodontal-ligament fibroblasts (hPDLFs) and CD14+ monocytes; experiment: hPDLF / CD14+ monocyte trans-well co-culture, ELISA of supernatants; assay type: cell-based
# Protocol: Culture primary human periodontal-ligament fibroblasts ([…]) and autologous CD14^+ monocytes in a trans-well co-culture that recapitulates the paracrine crosstalk driving osteoclastogenesis. After 24 h equilibration, expose triplicate wells to: (i) vehicle (0.1% DMSO); […] At 48 h collect supernatants and lysates. • a. […] Secondary Read-Outs: • a.
# [3] = test system: human periodontal ligament cells (hPDLCs); experiment: Cell viability (MTT) of hPDLCs; assay type: cell-based; settings: Day 1 (24 h)
# hPDLF monolayers = experiment: Scratch-wound closure in hPDLF monolayers; assay type: cell-based, human; settings: over 24 h after treatment
# [4] = test system: RAW 264.7 pre-osteoclasts; experiment: Osteoclastogenesis: hPDLC medium on RAW 264.7 pre-osteoclasts, TRAP staining; assay type: cell-based
# [5] = test system: hPDLF / CD14+ monocyte co-culture; experiment: TRAP-positive multinucleated osteoclasts on bone slices after seven-day co-culture; assay type: cell-based, human
# Protocol: Culture primary human periodontal-ligament fibroblasts (hPDLFs) and autologous CD14^+ monocytes in a trans-well co-culture that recapitulates the paracrine crosstalk driving osteoclastogenesis. […] At 48 h collect supernatants and lysates.
# • a. […] Secondary Read-Outs: • a.
# [6] = test system: human periodontal ligament cells (hPDLCs); experiment: IL-1β and TNF-α in supernatant (ELISA) of LPS-challenged hPDLCs under CoCl2; assay type: cell-based; settings: 2 μM simvastatin, LPS 1 μg/ml, vs LPS-Veh
smiles,measurement,setting,value
"CS(=O)(=O)c1ccc(Oc2cc(F)cc(C#N)c2)c2c1[C@H](O)[C@H](F)[C@@H]2F [Belzutifan, belzutifan]",solubility in DMSO,"[1]; DMSO, 25° C.",≈ 77 mg mL-1
same,solubility in ethanol,[1]; ethanol,sparingly soluble
same,solubility in water,[1]; water across pH 1-8,practically insoluble
same,cut of RANKL and pro-inflammatory cytokines versus vehicle,"[2]; ELISA at 48 h, belzutifan 0.1, 1, 10 nM",≥ 70%
same,"VEGF preserved, of VEGF seen in vehicle","[2]; VEGF-A secretion, 48 h",≥ 80%
same,Viability (% of No-Stim),[3],> 90%
same,scratch-wound closure kinetics,hPDLF monolayers,retain normal closure kinetics
same,reduction in osteoclast formation,[4]; at 1%,≥ 65%
same,cut of osteoclast formation,[5]; at 1 nM,> 60%
COC(=O)CNC(=O)C(=O)OC [DMOG],effect on osteoclast formation,[5]; DMOG 1 mM,increases
"CCC(C)(C)C(=O)O[C@H]1C[C@@H](C)C=C2C=C[C@H](C)[C@H](CC[C@@H]3C[C@@H](O)CC(=O)O3)[C@H]21 [SIMV, simvastatin]","IL-1β (24 h), decrease (↓)",[6],↓ 25%
same,"TNF-α (24 h), decrease (↓)",[6],↓ 20%
same,TRAP+ osteoclasts (cells per well),[4]; 2 μM simvastatin,85 cells per well
